Test results reported in ChEMBL document CHEMBL1201862, “PubChem BioAssay data set” (2004).
The source made the active and inactive calls.

Assays:
[1] = inhibitors of intracellular T. cruzi replication, confirmation, NIH3T3 host cells, beta-gal luminescence (AID 2044); assay type: functional, cell-based;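 note: intracellular parasites grown in NIH/3T3 mouse fibroblasts as host cells; luminescent beta-galactosidase reporter signal from transgenic T. cruzi replicating inside host cells; inhibitors lower the luminescence signal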
[2] = cytotoxicity toward NIH3T3 fibroblasts, dose response, counter-screen, cell-based, ATP luminescence, mouse fibroblasts (AID 2010); assay type: functional;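 note: cells exposed to compound for about 90 hours before reading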
[3] = target: T1, Type-1 angiotensin II receptor (Homo sapiens, UniProt P30556); assay: AT1 receptor agonists, dose response, selectivity assay for APJ receptor agonist project, cell-based, uHTS hits (AID 488865); assay type: functional;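 note: beta-arrestin recruitment to AT1 measured by enzyme fragment complementation luminescence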
T1 sequence (P30556 whole entry): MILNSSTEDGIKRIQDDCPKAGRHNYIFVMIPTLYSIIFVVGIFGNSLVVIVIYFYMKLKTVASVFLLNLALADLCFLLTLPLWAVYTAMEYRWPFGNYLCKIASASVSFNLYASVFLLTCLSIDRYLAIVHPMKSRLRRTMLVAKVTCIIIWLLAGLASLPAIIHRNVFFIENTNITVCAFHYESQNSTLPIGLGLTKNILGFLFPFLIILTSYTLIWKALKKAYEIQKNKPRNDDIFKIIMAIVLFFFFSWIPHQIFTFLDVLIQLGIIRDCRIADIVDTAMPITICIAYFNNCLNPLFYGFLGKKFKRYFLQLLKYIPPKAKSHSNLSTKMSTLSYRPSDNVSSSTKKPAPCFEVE

Bcl-2-related protein A1 = target: T2, Bcl-2-related protein A1 (Mus musculus, UniProt Q07440); assay type: functional;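 note: confirmatory dose–response counterscreen on Bfl-1, used to check hits from a UBC13 polyubiquitin inhibitor campaign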
T2 sequence (Q07440 whole entry): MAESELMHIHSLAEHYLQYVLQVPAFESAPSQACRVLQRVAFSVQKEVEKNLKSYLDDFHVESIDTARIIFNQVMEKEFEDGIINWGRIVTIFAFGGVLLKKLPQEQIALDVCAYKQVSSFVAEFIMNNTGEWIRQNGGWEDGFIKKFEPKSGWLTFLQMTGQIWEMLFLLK

[4] = target: T3, Ubiquitin-conjugating enzyme E2 N (Homo sapiens, UniProt P61088); assay type: functional
T3 sequence (P61088 whole entry): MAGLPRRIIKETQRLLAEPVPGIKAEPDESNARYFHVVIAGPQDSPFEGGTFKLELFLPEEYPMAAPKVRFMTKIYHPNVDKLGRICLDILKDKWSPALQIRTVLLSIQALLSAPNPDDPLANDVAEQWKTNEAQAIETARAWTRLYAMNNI

[5] = target: T3, Ubiquitin-conjugating enzyme E2 N; assay type: functional; remark: listed apart in the source
[6] = Luminescent dose response cell-based high throughput screening assay for inhibitors of the Janus kinase 2 mutant JAK2V617F. [Related pubchem assays: 1446 (Primary screen.), 1521 (Confirmation assay.), 1486 (Counter screen.)]; assay type: functional
[7] = Intein inhibitors as potential Tuberculosis drugs, a cytotoxicity screen. [Related pubchem assays (depositor defined):AID2221, AID2223, AID434968, AID435010, AID449749, AID449750, AID489010]; assay type: functional
HEK293 = assay: inhibitors of LMP1-driven NF-kB reporter, dose response, cell-based, HEK293, luciferase, cherry-pick (AID 588343); assay type: functional; conditions: Homo sapiens
[8] = target: T4, Replicative DNA helicase DnaB (Mycobacterium tuberculosis, UniProt P9WMR3); assay: DnaB intein splicing inhibitors, dose response, biochemical, cell-free fluorescence (AID 449749); assay type: functional
T4 sequence (P9WMR3 whole entry): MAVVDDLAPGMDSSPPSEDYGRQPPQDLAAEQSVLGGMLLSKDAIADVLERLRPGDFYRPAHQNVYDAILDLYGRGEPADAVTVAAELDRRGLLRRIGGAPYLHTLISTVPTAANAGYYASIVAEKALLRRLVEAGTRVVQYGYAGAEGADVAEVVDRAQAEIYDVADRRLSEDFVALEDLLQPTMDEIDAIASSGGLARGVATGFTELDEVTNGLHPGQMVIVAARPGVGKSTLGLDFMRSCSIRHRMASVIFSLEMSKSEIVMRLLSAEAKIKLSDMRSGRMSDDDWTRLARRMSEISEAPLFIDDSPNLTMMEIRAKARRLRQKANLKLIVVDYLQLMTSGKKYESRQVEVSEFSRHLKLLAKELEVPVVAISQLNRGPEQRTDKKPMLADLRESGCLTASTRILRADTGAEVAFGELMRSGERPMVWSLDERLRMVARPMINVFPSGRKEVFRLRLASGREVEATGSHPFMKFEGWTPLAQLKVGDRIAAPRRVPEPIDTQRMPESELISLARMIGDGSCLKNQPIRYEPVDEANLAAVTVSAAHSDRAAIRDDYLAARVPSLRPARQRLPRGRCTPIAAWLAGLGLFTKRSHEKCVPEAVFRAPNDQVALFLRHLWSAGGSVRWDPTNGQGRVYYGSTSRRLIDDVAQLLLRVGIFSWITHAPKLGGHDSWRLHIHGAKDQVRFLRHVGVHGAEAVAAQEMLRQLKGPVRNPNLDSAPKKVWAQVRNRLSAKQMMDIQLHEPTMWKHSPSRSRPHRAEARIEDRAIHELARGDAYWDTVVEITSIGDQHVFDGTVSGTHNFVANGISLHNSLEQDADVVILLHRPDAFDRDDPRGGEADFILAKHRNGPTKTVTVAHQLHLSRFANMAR

Protein RecA = target: T5, Protein RecA (Mycobacterium tuberculosis, UniProt P9WHJ3); assay: Fluorescence Cell-Free Homogeneous Dose Retest to Identify Inhibitors of RecA-Intein Splicing Activity. [Related pubchem assays (depositor defined):AID2097, AID2223, AID489010, AID492950]; assay type: functional
T5 sequence (P9WHJ3 whole entry): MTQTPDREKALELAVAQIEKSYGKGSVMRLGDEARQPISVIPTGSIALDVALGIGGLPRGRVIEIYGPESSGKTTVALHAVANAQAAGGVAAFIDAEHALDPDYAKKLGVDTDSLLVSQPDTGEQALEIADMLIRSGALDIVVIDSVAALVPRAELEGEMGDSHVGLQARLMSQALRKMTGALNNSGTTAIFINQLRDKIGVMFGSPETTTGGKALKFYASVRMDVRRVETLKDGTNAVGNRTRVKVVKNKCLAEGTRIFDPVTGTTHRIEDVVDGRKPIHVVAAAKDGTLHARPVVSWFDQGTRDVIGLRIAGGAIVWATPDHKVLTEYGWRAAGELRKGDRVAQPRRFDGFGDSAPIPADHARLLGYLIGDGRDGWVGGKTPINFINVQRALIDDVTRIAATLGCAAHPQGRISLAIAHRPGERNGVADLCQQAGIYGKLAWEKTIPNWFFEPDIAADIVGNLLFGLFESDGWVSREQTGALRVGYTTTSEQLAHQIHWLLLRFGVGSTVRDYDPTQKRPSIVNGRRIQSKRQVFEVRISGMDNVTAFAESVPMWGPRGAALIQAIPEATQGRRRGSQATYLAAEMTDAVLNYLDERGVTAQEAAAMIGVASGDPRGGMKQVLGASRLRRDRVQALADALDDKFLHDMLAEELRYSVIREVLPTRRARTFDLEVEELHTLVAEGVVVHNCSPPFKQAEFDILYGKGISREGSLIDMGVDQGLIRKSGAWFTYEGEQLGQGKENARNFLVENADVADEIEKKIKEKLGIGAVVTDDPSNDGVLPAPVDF

[9] = target: Beta-2 adrenergic receptor (Homo sapiens, UniProt P07550); assay: beta2AR agonists driving receptor internalization, dose response, cell-based, FAP fluorogen, flow cytometry, cherry pick 1 (AID 588763); assay type: functional
Chain of Beta-2 adrenergic receptor (P07550 whole entry): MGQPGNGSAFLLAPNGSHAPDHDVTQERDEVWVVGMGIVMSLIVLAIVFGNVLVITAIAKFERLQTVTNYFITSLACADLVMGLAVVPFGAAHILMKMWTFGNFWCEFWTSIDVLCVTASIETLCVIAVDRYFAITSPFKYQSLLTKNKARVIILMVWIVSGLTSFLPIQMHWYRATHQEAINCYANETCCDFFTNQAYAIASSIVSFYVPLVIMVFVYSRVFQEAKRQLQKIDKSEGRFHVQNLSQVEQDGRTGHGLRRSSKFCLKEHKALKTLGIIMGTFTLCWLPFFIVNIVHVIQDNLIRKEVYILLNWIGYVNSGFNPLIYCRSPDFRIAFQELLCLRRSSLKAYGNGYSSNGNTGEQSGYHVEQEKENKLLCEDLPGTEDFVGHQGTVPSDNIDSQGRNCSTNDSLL

[10] = HEK293T cell cytotoxicity, dose response, cytotoxicity control for HIV Vif inhibitor project, cherry-picks (AID 652208); assay type: functional, cell-based
Coagulation factor XII = target: T6, Coagulation factor XII (Homo sapiens, UniProt P00748); assay: Factor XIIa Dose Response Confirmation from Single Well HTS. [Related pubchem assays (depositor defined):AID701]; assay type: functional
T6 sequence (P00748 whole entry): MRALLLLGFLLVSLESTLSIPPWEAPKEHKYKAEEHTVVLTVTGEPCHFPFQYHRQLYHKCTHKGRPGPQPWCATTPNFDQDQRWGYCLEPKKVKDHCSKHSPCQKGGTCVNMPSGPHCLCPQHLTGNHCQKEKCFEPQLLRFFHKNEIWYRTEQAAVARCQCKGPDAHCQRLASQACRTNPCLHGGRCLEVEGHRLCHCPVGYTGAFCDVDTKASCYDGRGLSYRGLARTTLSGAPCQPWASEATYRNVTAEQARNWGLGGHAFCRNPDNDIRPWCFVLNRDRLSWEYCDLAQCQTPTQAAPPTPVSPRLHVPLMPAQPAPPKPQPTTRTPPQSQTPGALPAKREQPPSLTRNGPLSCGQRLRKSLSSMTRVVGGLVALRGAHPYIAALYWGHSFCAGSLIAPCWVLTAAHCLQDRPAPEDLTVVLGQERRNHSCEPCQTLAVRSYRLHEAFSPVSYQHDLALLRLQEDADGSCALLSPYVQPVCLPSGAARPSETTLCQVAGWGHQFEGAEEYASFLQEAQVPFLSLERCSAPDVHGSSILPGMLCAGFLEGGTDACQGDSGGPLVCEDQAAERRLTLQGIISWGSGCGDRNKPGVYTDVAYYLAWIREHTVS

[11] = target: Tyrosine-protein phosphatase non-receptor type 7 (Homo sapiens, UniProt P35236); assay: SAR analysis of chemical inhibitors of HePTP using a Fluorescent assay - Set 2. [Related pubchem assays (depositor defined):AID1059, AID1077, AID1661, AID2085, AID521]; assay type: functional
Chain of Tyrosine-protein phosphatase non-receptor type 7 (P35236 whole entry): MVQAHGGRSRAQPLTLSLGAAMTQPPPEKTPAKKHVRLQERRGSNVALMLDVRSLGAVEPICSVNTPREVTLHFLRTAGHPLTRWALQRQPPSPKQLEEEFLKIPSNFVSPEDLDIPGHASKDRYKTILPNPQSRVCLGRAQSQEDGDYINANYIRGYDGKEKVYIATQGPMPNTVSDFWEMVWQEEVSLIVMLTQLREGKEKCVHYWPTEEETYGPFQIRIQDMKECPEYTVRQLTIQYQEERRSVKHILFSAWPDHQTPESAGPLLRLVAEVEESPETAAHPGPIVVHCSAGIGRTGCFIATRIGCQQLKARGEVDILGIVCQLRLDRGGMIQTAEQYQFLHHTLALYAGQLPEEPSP

[12] = target: Dual specificity protein phosphatase 3 (Homo sapiens, UniProt P51452); assay: SAR VHR1 Fluorescent Assay for In Vitro dose response studies Set 2. [Related pubchem assays (depositor defined):AID1654, AID1661, AID1878]; assay type: functional
Chain of Dual specificity protein phosphatase 3 (P51452 whole entry): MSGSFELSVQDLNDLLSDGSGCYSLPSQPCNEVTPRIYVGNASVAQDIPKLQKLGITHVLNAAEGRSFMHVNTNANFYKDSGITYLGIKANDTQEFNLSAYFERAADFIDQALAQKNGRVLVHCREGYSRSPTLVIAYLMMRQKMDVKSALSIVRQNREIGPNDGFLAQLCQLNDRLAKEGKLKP

[13] = target: T7, G-protein coupled receptor 55 (Homo sapiens, UniProt Q9Y2T6); assay: GPR55 antagonists blocking LPI-driven arrestin recruitment, primary screen, imaging, U2OS, beta-arrestin-GFP, LPI agonist (AID 2013); assay type: functional;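 note: antagonist potency measured as reduced agonist-driven arrestin aggregation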
T7 sequence (Q9Y2T6 whole entry): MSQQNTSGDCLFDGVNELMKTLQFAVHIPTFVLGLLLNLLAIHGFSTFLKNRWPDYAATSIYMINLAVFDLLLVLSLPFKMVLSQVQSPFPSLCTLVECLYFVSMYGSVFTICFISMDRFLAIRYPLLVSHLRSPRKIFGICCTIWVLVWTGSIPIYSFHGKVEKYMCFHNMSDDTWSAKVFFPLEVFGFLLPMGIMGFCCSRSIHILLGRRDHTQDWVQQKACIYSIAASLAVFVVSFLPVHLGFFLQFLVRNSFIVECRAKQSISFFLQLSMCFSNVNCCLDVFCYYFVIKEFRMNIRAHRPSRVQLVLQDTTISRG

Cannabinoid receptor 1 [14] = target: T8, Cannabinoid receptor 1 (Homo sapiens, UniProt P21554); assay: SAR analysis of antagonists of the Cannabinoid Receptor 1 using an Image-Based Assay - Set 2. [Related pubchem assays (depositor defined):AID2013, AID2026]; assay type: functional
T8 sequence (P21554 whole entry): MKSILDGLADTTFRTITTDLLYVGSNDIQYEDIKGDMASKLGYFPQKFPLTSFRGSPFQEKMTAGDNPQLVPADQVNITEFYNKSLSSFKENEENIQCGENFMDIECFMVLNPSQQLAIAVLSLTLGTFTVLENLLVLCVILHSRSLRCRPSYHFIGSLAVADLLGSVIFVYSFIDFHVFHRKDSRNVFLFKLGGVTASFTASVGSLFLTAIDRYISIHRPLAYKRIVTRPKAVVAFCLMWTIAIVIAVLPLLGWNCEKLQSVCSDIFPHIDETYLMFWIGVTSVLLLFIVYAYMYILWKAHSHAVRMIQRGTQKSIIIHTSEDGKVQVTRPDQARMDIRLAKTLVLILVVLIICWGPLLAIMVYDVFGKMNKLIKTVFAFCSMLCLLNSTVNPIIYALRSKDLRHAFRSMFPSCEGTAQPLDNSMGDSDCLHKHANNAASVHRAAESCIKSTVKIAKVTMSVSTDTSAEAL

[15] = target: T9, G-protein coupled receptor 35 (Homo sapiens, UniProt Q9HC97); assay: SAR analysis of Agonists of the GPR35 Receptor using an Image-Based Assay - Set 2. [Related pubchem assays (depositor defined):AID2013, AID2026]; assay type: functional
T9 sequence (Q9HC97 whole entry): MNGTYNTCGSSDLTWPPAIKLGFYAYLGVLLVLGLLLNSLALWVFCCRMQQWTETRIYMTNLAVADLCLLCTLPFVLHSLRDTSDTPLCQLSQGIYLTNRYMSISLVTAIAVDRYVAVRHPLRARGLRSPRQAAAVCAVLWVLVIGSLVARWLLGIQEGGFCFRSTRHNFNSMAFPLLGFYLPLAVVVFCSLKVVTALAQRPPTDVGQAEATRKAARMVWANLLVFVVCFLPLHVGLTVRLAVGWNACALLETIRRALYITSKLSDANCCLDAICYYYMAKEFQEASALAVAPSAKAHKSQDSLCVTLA

Cannabinoid receptor 2 [16] = target: T10, Cannabinoid receptor 2 (Homo sapiens, UniProt P34972); assay: SAR analysis of antagonists of the Cannabinoid Receptor 2 using an Image-Based Assay. [Related pubchem assays (depositor defined):AID2013, AID2026]; assay type: functional
T10 sequence (P34972 whole entry): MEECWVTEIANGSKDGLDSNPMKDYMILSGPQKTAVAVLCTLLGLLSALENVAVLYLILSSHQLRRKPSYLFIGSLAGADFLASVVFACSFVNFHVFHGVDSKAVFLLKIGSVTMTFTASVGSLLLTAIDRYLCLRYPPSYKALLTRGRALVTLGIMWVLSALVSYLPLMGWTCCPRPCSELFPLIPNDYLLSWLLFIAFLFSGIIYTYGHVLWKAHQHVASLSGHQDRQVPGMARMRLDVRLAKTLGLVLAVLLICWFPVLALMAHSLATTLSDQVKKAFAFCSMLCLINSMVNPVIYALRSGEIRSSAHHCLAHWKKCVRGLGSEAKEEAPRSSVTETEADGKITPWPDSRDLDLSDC

Cannabinoid receptor 1 [17] = target: T8, Cannabinoid receptor 1; assay: SAR analysis of agonists of the Cannabinoid Receptor 1 using an Image-Based Assay - Set 2. [Related pubchem assays (depositor defined):AID2013, AID2026]; assay type: functional
[18] = target: T9, G-protein coupled receptor 35; assay: SAR analysis of Antagonists of the GPR35 Receptor using an Image-Based Assay - Set 3. [Related pubchem assays (depositor defined):AID2013, AID2026]; assay type: functional
[19] = target: T7, G-protein coupled receptor 55; assay: GPR55 antagonist potency of analogs, SAR follow-up, imaging, U2OS, beta-arrestin-GFP, LPI agonist, set 2 (AID 2820); assay type: functional
Cannabinoid receptor 2 [20] = target: T10, Cannabinoid receptor 2; assay: SAR analysis of agonists of the Cannabinoid Receptor 2 using an Image-Based Assay. [Related pubchem assays (depositor defined):AID2013, AID2026]; assay type: functional
Cytochrome P450 2C19 = Cytochrome P450 2C19 (Homo sapiens, UniProt P33261); assay: Cytochrome panel assay with activity outcomes. Panel member name: p450-cyp2c19 Compounds with AC50 equal or less than 10 uM are considered active; assay type: functional; conditions: read-out: AC50
Chain of Cytochrome P450 2C19 (P33261 whole entry): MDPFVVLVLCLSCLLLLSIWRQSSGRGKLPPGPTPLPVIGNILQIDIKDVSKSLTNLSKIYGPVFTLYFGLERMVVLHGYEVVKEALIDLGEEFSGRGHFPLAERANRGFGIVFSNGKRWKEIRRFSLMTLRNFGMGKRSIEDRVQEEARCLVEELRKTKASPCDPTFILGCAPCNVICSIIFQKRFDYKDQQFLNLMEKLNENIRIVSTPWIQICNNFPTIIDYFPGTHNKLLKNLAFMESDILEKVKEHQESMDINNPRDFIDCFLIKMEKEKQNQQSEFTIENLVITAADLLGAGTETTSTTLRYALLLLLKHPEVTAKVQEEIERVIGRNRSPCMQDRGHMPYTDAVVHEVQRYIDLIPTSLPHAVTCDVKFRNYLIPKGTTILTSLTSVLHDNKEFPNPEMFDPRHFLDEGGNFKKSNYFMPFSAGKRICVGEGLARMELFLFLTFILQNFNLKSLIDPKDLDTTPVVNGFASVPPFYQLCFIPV

Cytochrome P450 3A4 = Cytochrome P450 3A4 (Homo sapiens, UniProt P08684);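 note: CYP3A4 tested as one member of a cytochrome P450 panel screen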
Chain of Cytochrome P450 3A4 (P08684 whole entry): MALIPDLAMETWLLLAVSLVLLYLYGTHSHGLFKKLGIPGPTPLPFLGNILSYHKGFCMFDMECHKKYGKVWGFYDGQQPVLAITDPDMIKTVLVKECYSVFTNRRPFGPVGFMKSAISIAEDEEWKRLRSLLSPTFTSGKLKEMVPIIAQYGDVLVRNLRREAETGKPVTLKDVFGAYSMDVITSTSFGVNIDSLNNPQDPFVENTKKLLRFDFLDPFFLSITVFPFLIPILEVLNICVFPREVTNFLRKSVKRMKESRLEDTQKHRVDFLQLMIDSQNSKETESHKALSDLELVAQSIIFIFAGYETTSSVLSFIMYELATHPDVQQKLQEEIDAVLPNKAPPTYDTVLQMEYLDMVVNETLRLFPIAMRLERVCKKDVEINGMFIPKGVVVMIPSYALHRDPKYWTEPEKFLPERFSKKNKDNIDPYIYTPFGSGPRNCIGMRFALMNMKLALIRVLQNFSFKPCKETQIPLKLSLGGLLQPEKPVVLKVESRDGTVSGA
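Throughout, for CC50: cells exposed to compound for 72 hours before luminescence readout.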

Clc1cccc(CN2CCc3c([nH]c4ccccc34)C2)c1
EC50 [1]: 3.73 µM (active) | EC50 [2]: > 60 µM (not active) | EC50 [3]: > 100 µM (inactive)

COc1ccc(OC)c(/C=C/C(=O)OCC(=O)c2c(N)n(C)c(=O)n(C)c2=O)c1
IC50 (Bcl-2-related protein A1): > 20 µM (inactive) | IC50 [4]: 14 µM (active) | IC50 [5]: > 20 µM (inactive)

Clc1ccc(-n2nnnc2Sc2ncnc3sccc23)cc1
IC50 [6]: 0.787 µM (active) | CC50 [7]: 9.7 µM (active) | AC50 (HEK293): 10.7 µM (active) | AC50 [8]: 3.76 µM (active) | EC50 (Protein RecA): 1.03 µM (active) | EC50 [9]: 10.5 µM (inactive) | AC50 [10]: 10.8 µM (active)

N#Cc1ccc(NC(=O)COC(=O)CNC(=O)C2CCCCC2)cc1
IC50 (Coagulation factor XII): > 50 µM (inactive)

Nc1c(C(=O)N2CCOCC2)sc(=S)n1-c1ccccc1
IC50 [11]: > 100 µM (inactive) | IC50 [12]: 85.5 µM (active)

Cc1cc(C)c2nc(-c3ccccn3)cc(C(=O)Nc3ccc(S(=O)(=O)Nc4cc(C)on4)cc3)c2c1
IC50 [13]: 1.82 µM (active) | IC50 (Cannabinoid receptor 1 [14]): > 32 µM (inactive) | EC50 [15]: > 32 µM (inactive) | IC50 (Cannabinoid receptor 2 [16]): > 32 µM (inactive) | EC50 (Cannabinoid receptor 1 [17]): > 32 µM (inactive) | IC50 [18]: > 32 µM (inactive) | IC50 [19]: 0.709 µM (active) | EC50 (Cannabinoid receptor 2 [20]): > 32 µM (inactive) | AC50 (Cytochrome P450 2C19): 17.8 µM (inconclusive) | AC50 (Cytochrome P450 3A4): 17.8 µM (inconclusive)
